Measurements taken from patent US11459324B2, “O-glycoprotein-2-acetamido-2-deoxy-3-D-glycopyranosidase inhibitors” (BIOGEN MA INC., priority 2018, dated 2022).

biological target: T1, Recombinant full length human OGA enzyme (Homo sapiens, UniProt O60502); assay: OGA Enzyme Inhibition Biochemical Assay; conditions: 1 nM OGA, 100 μM 4-MUGlcNAc (Km), pH 6.4, 90 minutes at room temperature, 10-point dose-response from 20 μM
T1 construct: Recombinant full length human OGA enzyme was purchased from Origene; purchased Origene
T1 sequence (O60502 1-916): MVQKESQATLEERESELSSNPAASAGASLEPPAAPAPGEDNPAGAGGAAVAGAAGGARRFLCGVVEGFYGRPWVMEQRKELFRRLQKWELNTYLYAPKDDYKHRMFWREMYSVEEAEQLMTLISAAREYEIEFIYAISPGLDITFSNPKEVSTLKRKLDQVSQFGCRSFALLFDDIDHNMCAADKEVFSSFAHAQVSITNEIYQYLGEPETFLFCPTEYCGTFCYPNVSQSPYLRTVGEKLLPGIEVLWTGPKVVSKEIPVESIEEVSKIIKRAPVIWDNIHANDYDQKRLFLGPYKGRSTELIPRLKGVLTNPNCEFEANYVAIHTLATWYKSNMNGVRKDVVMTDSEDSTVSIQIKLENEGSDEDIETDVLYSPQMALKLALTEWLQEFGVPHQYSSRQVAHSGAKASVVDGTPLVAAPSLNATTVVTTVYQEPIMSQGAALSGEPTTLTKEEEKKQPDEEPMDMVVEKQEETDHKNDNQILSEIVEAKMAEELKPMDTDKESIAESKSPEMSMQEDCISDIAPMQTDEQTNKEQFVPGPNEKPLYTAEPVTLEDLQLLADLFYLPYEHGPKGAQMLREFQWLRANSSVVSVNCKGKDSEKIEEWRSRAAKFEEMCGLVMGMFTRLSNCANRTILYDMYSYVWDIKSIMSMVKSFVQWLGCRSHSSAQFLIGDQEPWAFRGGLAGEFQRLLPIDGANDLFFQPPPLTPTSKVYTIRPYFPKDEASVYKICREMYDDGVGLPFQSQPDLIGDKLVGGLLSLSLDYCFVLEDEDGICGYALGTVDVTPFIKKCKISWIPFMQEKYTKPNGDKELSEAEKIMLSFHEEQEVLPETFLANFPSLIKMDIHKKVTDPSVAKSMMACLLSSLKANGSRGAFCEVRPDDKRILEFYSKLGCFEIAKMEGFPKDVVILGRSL
Description: OGA Enzyme Inhibition Biochemical Assay
Recombinant full length human OGA enzyme was purchased from Origene. 4-MUGlCNAc substrate was purchased from Sigma. All other reagents were purchased from Sigma or Fisher. Assay buffer consists of the McIlvaine buffer system, pH 6.4 (0.2M Na2HPO4 mixed with 0.1M citric acid) and 0.01% BSA. Reactions consist of 1 nM OGA, 100 μM 4-MUGlcNAc (Km), and compound in a final volume of 10 μl. Reactions were incubated for 90 minutes at room temperature and quenched with 40 μl of 3M glycine, pH 10 and read on a Perkin Elmer Envision plate reader (Ex: 355 nm/Em: 460 nm). Compounds were tested with a 10-point dose-response starting from 20 μM with a 4-fold dilution. Data was fit using GraphPad Prism using a 4-parameter fit with variable slope.

Going from CC(=O)Nc1ncc(CN2CCCC(Cc3cc(F)ccn3)C2)s1 (centres unmarked) [Example 1-13, N-(5-((3-((4-fluoropyridin-2-yl)methyl)piperidin-1-yl)methyl)thiazol-2-yl)acetamide] to CC(=O)Nc1ncc(CN2CCCC(Cc3cc(C)ccn3)C2)s1 (centres unmarked) [Example 1-45, N-(5-((3-((4-methylpyridin-2-yl)methyl)piperidin-1-yl)methyl)thiazol-2-yl)acetamide], the IC50 falls from 142 nM to 24 nM (5.9-fold). The second is the more potent here.

Compared with COc1cccc(CC2CCN(Cc3cnc(NC(C)=O)s3)C2)c1 (centres unmarked) [Example 1-14, N-(5-((3-(3-methoxybenzyl)pyrrolidin-1-yl)methyl)thiazol-2-yl)acetamide], CC(=O)Nc1ncc(CN2CCC(Cc3cccc(F)c3)C2)s1 (centres unmarked) [Example 1-16, N-(5-((3-(3-fluorobenzyl)pyrrolidin-1-yl)methyl)thiazol-2-yl)acetamide] is 12-fold higher in IC50: 22 nM for the first, 270 nM for the second.

Compared with COc1ccc(CC2CCN(Cc3cnc(NC(C)=O)s3)C2)cc1 (centres unmarked) [Example 1-15, N-(5-((3-(4-methoxybenzyl)pyrrolidin-1-yl)methyl)thiazol-2-yl)acetamide], CC(=O)Nc1ncc(CN2CCC(Cc3ccc(F)cc3)C2)s1 (centres unmarked) [Example 1-17, N-(5-((3-(4-fluorobenzyl)pyrrolidin-1-yl)methyl)thiazol-2-yl)acetamide] is 3.9-fold higher in IC50: 46 nM for the first, 180 nM for the second. The first is the more potent here.

First: COc1cccc(CC2CCN(Cc3cnc(NC(C)=O)s3)C2)n1 (centres unmarked) [Example 1-18, N-(5-((3-((6-methoxypyridin-2-yl)methyl)pyrrolidin-1-yl)methyl)thiazol-2-yl)acetamide]
Second: COc1ccc(CC2CCN(Cc3cnc(NC(C)=O)s3)C2)nc1 (centres unmarked) [Example 1-22, N-(5-((3-((5-methoxypyridin-2-yl)methyl)pyrrolidin-1-yl)methyl)thiazol-2-yl)acetamide]
The IC50 of the first is 5.9-fold lower: 17 nM for the first, 100 nM for the second.

Compared with COc1cc(CC2CCN(Cc3cnc(NC(C)=O)s3)C2)ccn1 (centres unmarked) [Example 1-19, N-(5-((3-((2-methoxypyridin-4-yl)methyl)pyrrolidin-1-yl)methyl)thiazol-2-yl)acetamide], COc1ccc(CC2CCN(Cc3cnc(NC(C)=O)s3)C2)cn1 (centres unmarked) [Example 1-23, N-(5-((3-((6-methoxypyridin-3-yl)methyl)pyrrolidin-1-yl)methyl)thiazol-2-yl)acetamide] is 1.7-fold higher in IC50: 10 nM for the first, 17 nM for the second. The first is the more potent here.

Compared with COc1cncc(CC2CCN(Cc3cnc(NC(C)=O)s3)C2)c1 (centres unmarked) [Example 1-20, N-(5-((3-((5-methoxypyridin-3-yl)methyl)pyrrolidin-1-yl)methyl)thiazol-2-yl)acetamide], CC(=O)Nc1ncc(CN2CCC(Cc3cncc(F)c3)C2)s1 (centres unmarked) [Example 1-24, N-(5-((3-((5-fluoropyridin-3-yl)methyl)pyrrolidin-1-yl)methyl)thiazol-2-yl)acetamide] is 2.2-fold lower in IC50: 69 nM for the first, 31 nM for the second. The second is the more potent here.

Compared with COc1ccnc(CC2CCN(Cc3cnc(NC(C)=O)s3)C2)c1 (centres unmarked) [Example 1-21, N-(5-((3-((4-methoxypyridin-2-yl)methyl)pyrrolidin-1-yl)methyl)thiazol-2-yl)acetamide], CC(=O)Nc1ncc(CN2CCC(Cc3ccc(F)cn3)C2)s1 (centres unmarked) [Example 1-25, N-(5-((3-((5-fluoropyridin-2-yl)methyl)pyrrolidin-1-yl)methyl)thiazol-2-yl)acetamide] is 17-fold higher in IC50: 13 nM for the first, 220 nM for the second. The first is the more potent here.

Going from CC(=O)Nc1ncc(CN2CCCC(Cc3cncc(C(F)(F)F)n3)C2)s1 (centres unmarked) [Example 1-26, N-(5-((3-((6-(trifluoromethyl)pyrazin-2-yl)methyl)piperidin-1-yl)methyl)thiazol-2-yl)acetamide] to CC(=O)Nc1ncc(CN2CCCC(Cc3cncc(C)n3)C2)s1 (centres unmarked) [Example 1-33, N-(5-((3-((6-methylpyrazin-2-yl)methyl)piperidin-1-yl)methyl)thiazol-2-yl)acetamide], the IC50 falls from 30 nM to 4 nM (7.5-fold). The second is the more potent here.

First: CC(=O)Nc1ncc(CN2CCCC(Cc3cccnc3)C2)s1 (centres unmarked) [Example 1-27, N-(5-((3-(pyridin-3-ylmethyl)piperidin-1-yl)methyl)thiazol-2-yl)acetamide]
Second: CC(=O)Nc1ncc(CN2CCCC(Cc3ccncc3)C2)s1 (centres unmarked) [Example 1-40, N-(5-((3-(pyridin-4-ylmethyl)piperidin-1-yl)methyl)thiazol-2-yl)acetamide]
The IC50 of the first is 2.8-fold higher: 11 nM for the first, 4 nM for the second. The second is the more potent here.

Going from CC(=O)Nc1ncc(CN2CCCC(Cc3ccccc3)C2)s1 (centres unmarked) [Example 1-28, N-(5-((3-benzylpiperidin-1-yl)methyl)thiazol-2-yl)acetamide] to CC(=O)Nc1ncc(CN2CCCC(Cc3cccc(C)n3)C2)s1 (centres unmarked) [Example 1-29, N-(5-((3-((6-methylpyridin-2-yl)methyl)piperidin-1-yl)methyl)thiazol-2-yl)acetamide], the IC50 falls from 52 nM to 2 nM (26-fold).

CC(=O)Nc1ncc(CN2CCCC(Cc3cncc(C(F)(F)F)c3)C2)s1 (centres unmarked) [Example 1-30, N-(5-((3-((5-(trifluoromethyl)pyridin-3-yl)methyl)piperidin-1-yl)methyl)thiazol-2-yl)acetamide] and CC(=O)Nc1ncc(CN2CCCC(Cc3ncccc3C(F)(F)F)C2)s1 (centres unmarked) [Example 1-46, N-(5-((3-((3-(trifluoromethyl)pyridin-2-yl)methyl)piperidin-1-yl)methyl)thiazol-2-yl)acetamide] are within 1.5-fold of each other in IC50: 30 nM for the first, 25 nM for the second.

CC(=O)Nc1ncc(CN2CCCC(Cc3ccc(C)cn3)C2)s1 (centres unmarked) [Example 1-31, N-(5-((3-((5-methylpyridin-2-yl)methyl)piperidin-1-yl)methyl)thiazol-2-yl)acetamide] and CC(=O)Nc1ncc(CN2CCCC(Cc3ncc(C)s3)C2)s1 (centres unmarked) [Example 1-35, N-(5-((3-((5-methylthiazol-2-yl)methyl)piperidin-1-yl)methyl)thiazol-2-yl)acetamide] are the same in IC50: 5 nM for the first, 5 nM for the second.

First: COc1cncc(CC2CCCN(Cc3cnc(NC(C)=O)s3)C2)n1 (centres unmarked) [Example 1-32, N-(5-((3-((6-methoxypyrazin-2-yl)methyl)piperidin-1-yl)methyl)thiazol-2-yl)acetamide]
Second: CC(=O)Nc1ncc(CN2CCCC(Cc3csc(C)n3)C2)s1 (centres unmarked) [Example 1-36, N-(5-((3-((2-methylthiazol-4-yl)methyl)piperidin-1-yl)methyl)thiazol-2-yl)acetamide]
The IC50 of the first is 15-fold lower: 2 nM for the first, 30 nM for the second.

Going from CC(=O)Nc1ncc(CN2CCCC(Cc3nc(C)cs3)C2)s1 (centres unmarked) [Example 1-34, N-(5-((3-((4-methylthiazol-2-yl)methyl)piperidin-1-yl)methyl)thiazol-2-yl)acetamide] to CC(=O)Nc1ncc(CN2CCCC(Cc3nccs3)C2)s1 (centres unmarked) [Example 1-39, N-(5-((3-(thiazol-2-ylmethyl)piperidin-1-yl)methyl)thiazol-2-yl)acetamide], the IC50 rises from 5 nM to 11 nM (2.2-fold).

First: CC(=O)Nc1ncc(CN2CCCC(Cc3cncs3)C2)s1 (centres unmarked) [Example 1-37, N-(5-((3-(thiazol-5-ylmethyl)piperidin-1-yl)methyl)thiazol-2-yl)acetamide]
Second: CC(=O)Nc1ncc(CN2CCCC(Cc3cscn3)C2)s1 (centres unmarked) [Example 1-38, N-(5-((3-(thiazol-4-ylmethyl)piperidin-1-yl)methyl)thiazol-2-yl)acetamide]
The IC50 of the first is 7.8-fold lower: 4 nM for the first, 31 nM for the second. The first is the more potent here.

Compared with CCc1cc2c(CC3CCCN(Cc4cnc(NC(C)=O)s4)C3)ncnc2s1 (centres unmarked) [Example 1-41, N-(5-((3-((6-ethylthieno[2,3-d]pyrimidin-4-yl)methyl)piperidin-1-yl)methyl)thiazol-2-yl)acetamide], CCc1cc2ncnc(CC3CCCN(Cc4cnc(NC(C)=O)s4)C3)c2s1 (centres unmarked) [Example 1-42, N-(5-((3-((6-ethylthieno[3,2-d]pyrimidin-4-yl)methyl)piperidin-1-yl)methyl)thiazol-2-yl)acetamide] is 2-fold higher in IC50: 1 nM for the first, 2 nM for the second.

Going from CC(=O)Nc1ncc(CN2CCCC(Cc3nc(C)nc4ccsc34)C2)s1 (centres unmarked) [Example 1-43, N-(5-((3-((2-methylthieno[3,2-d]pyrimidin-4-yl)methyl)piperidin-1-yl)methyl)thiazol-2-yl)acetamide] to CC(=O)Nc1ncc(CN2CCCC(Cc3ncnc4ccsc34)C2)s1 (centres unmarked) [Example 1-44, N-(5-((3-(thieno[3,2-d]pyrimidin-4-ylmethyl)piperidin-1-yl)methyl)thiazol-2-yl)acetamide], the IC50 falls from 3 nM to 2 nM (1.5-fold).

CC(=O)Nc1ncc(CN2CCCC(Cc3ccn(C)n3)C2)s1 (centres unmarked) [Example 1-47, N-(5-((3-((1-methyl-1H-pyrazol-3-yl)methyl)piperidin-1-yl)methyl)thiazol-2-yl)acetamide] showed an IC50 of 16 nM.
